Results on 13 compounds are retold here after patent publication US20190248765A1, “COMPOUNDS, COMPOSITIONS, AND METHODS FOR INCREASING CFTR ACTIVITY” (Proteostasis Therapeutics, Inc., priority 2016, published 2019).

Each structure is given as a SMILES string.

In this assay the target is T1, ΔF508-CFTR (Homo sapiens, UniProt P13569, DEL508-508).
T1 construct: Primary lung epithelial cells homozygous for the Cystic Fibrosis-causing ΔF508 mutation were differentiated; endogenous in cells; host or cells: primary human lung/bronchial epithelial cells (hBE) homozygous for ΔF508, differentiated at an air-liquid interface
Briefly: hBE Equivalent Current (Ieq) Assay. To be noted: Compound A at 3 uM, primary lung epithelial cells homozygous for ΔF508, 24 hours treatment. It is filed as cell-based. How it is done: ii. hBE Equivalent Current (Ieq) Assay
Primary lung epithelial cells homozygous for the Cystic Fibrosis-causing ΔF508 mutation were differentiated for a minimum of 4 weeks in an air-liquid interface on Costar 24 well HTS filter plates prior to the equivalent current (Ieq) measurements. Cells were apically mucus-washed for 30 minutes 24 h prior to treatment with compounds. The basolateral media was removed and replaced with media containing the compound of interest diluted to its final concentration from DMSO stocks. Treated cells were incubated at 37° C. and 5% CO2 for 24 hours. At the end of the treatment period, the media was changed to the Ieq experimental solution for 2 hours before the experiment and plates are maintained in a CO2-free incubator during this period. The plates containing the cells were then placed in pre-warmed heating blocks at 36° C.±0.5 for 15 minutes before measurements are taken. The transepithelial voltage (VT) and conductance (GT) were measured using a custom 24 channel current clamp (TECC-24) with 24 well electrode manifold. The Ieq assay measurements were made following additions with standardized time periods:
1. The baseline VT and GT values were measured for approximately 20 minutes.
2. Benzamil was added to block ENaC for 15 minutes.
3. Forskolin plus VX-770 were added to maximally activate ΔF508-CFTR for 27 minutes.
4. Bumetanide was added to inhibit the NaK2Cl cotransporter and shut-off secretion of chloride.
The activity data captured was the area under the curve (AUC) for the traces of the equivalent chloride current. The AUC was collected from the time of the forskolin/VX-770 addition until the inhibition by bumetanide addition. Correction in response to compound treatment was scored as the increase in the AUC for compound-treated samples over that of vehicle-treated samples.
(+ indicates activity<150% of a CFTR amplifier (Compound A) with compound at concentration shown and Compound A at 3 uM; ++ indicates activity>150% of a CFTR amplifier with compound at concentration shown and Compound A at 3 uM.

T1 sequence (P13569 with tags, fused parts or gaps DEL508-508): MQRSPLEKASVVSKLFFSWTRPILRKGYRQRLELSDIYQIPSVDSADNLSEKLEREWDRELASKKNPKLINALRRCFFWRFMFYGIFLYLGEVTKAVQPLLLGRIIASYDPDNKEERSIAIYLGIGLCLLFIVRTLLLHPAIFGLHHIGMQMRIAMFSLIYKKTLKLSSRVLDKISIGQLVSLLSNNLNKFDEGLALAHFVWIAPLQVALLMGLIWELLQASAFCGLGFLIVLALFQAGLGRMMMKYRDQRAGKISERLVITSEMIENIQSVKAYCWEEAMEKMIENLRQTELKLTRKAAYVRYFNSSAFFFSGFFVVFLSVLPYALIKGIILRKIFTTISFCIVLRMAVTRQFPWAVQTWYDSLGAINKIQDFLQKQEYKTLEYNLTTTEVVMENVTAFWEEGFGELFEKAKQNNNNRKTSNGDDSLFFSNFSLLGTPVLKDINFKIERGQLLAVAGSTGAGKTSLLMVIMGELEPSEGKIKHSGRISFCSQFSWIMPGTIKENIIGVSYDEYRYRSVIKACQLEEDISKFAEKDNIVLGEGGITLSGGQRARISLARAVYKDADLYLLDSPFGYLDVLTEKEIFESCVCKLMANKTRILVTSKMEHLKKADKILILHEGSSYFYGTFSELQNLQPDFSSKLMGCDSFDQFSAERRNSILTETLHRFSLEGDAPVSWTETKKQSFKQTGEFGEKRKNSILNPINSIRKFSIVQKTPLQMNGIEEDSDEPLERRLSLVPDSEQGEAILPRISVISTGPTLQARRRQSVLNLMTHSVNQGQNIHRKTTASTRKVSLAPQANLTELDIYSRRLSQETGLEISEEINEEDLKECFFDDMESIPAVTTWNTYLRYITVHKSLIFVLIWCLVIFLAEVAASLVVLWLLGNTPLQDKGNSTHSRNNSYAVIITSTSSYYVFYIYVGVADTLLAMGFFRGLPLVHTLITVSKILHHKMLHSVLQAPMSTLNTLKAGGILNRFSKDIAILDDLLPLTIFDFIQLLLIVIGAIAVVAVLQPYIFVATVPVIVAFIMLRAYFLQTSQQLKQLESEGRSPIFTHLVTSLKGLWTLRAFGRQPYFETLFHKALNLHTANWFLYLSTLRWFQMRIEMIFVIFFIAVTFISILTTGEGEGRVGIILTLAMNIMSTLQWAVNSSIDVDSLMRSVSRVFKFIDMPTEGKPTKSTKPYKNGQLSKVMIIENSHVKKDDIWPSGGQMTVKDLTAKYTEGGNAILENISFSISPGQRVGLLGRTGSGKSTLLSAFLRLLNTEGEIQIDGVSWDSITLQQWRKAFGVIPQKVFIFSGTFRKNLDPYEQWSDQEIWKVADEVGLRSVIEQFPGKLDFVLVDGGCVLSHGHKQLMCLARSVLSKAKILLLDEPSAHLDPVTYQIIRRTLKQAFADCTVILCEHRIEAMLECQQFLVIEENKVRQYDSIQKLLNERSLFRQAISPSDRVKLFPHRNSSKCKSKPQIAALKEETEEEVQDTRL

Regarding `COc1cccc(-c2ccc(=O)n(C(C)c3nc4ccccc4o3)n2)c1` (stereo not shown) [Compound 1, 2-[1-(1,3-benzoxazol-2-yl)ethyl]-6-(3-methoxyphenyl)-2,3-dihydropyridazin-3-one], the “Activity (AUC of equivalent chloride current, relative to CFTR amplifier Compound A)” value is “+ (activity<150% of a CFTR amplifier (Compound A) with compound at concentration shown and Compound A at 3 uM)” (compound at 3 μM); “+ (activity<150% of a CFTR amplifier (Compound A) with compound at concentration shown and Compound A at 3 uM)” (compound at 10 μM).

Consider `COc1cccc(-c2ccc(=O)n(C(C)c3nc4ccccc4[nH]3)n2)c1` (stereo not shown) [Compound 2, 2-[1-(1H-1,3-benzodiazol-2-yl)ethyl]-6-(3-methoxyphenyl)-2,3-dihydropyridazin-3-one], for which the “Activity (AUC of equivalent chloride current, relative to CFTR amplifier Compound A)” value (compound at 10 μM) was “+ (activity<150% of a CFTR amplifier (Compound A) with compound at concentration shown and Compound A at 3 uM)”. As for `COc1cccc(-c2ccc(=O)n(C(C)c3nc4cc(C(F)(F)F)ccc4[nH]3)n2)c1` (stereo not shown) [Compound 3, 6-(3-Methoxyphenyl)-2-(1-(5-(trifluoromethyl)-1H-benzo[d]imidazol-2-yl)ethyl)pyridazin-3(2H)-one], the “Activity (AUC of equivalent chloride current, relative to CFTR amplifier Compound A)” value reads like this: (compound at 3 μM) “++ (activity>150% of a CFTR amplifier with compound at concentration shown and Compound A at 3 uM)”; (compound at 10 μM) “++ (activity>150% of a CFTR amplifier with compound at concentration shown and Compound A at 3 uM)”.

As for `COc1cccc(-c2ccc(=O)n(C(C)c3nc4cc(C(C)(C)C)ccc4[nH]3)n2)c1` (stereo not shown) [Compound 4, 2-(1-(5-(tert-Butyl)-1H-benzo[d]imidazol-2-yl)ethyl)-6-(3-methoxyphenyl)pyridazin-3(2H)-one], the “Activity (AUC of equivalent chloride current, relative to CFTR amplifier Compound A)” value is “+ (activity<150% of a CFTR amplifier (Compound A) with compound at concentration shown and Compound A at 3 uM)” (compound at 3 μM); “+ (activity<150% of a CFTR amplifier (Compound A) with compound at concentration shown and Compound A at 3 uM)” (compound at 10 μM). For the compound `COc1cccc(-c2ccc(=O)n(C(C)c3nc4cc(Cl)ccc4[nH]3)n2)c1` (stereo not shown) [Compound 5, 2-(1-(5-Chloro-1H-benzo[d]imidazol-2-yl)ethyl)-6-(3-methoxyphenyl)pyridazin-3(2H)-one], the “Activity (AUC of equivalent chloride current, relative to CFTR amplifier Compound A)” value runs as follows: (compound at 3 μM) “+ (activity<150% of a CFTR amplifier (Compound A) with compound at concentration shown and Compound A at 3 uM)”; (compound at 10 μM) “+ (activity<150% of a CFTR amplifier (Compound A) with compound at concentration shown and Compound A at 3 uM)”.

Regarding `CC(c1nc2cc(C(F)(F)F)ccc2[nH]1)n1nc(-c2cccc(Cl)c2)ccc1=O` (stereo not shown) [Compound 6, 6-(3-Chlorophenyl)-2-(1-(5-(trifluoromethyl)-1H-benzo[d]imidazol-2-yl)ethyl)pyridazin-3(2H)-one], the “Activity (AUC of equivalent chloride current, relative to CFTR amplifier Compound A)” value is, setting by setting: (compound at 3 μM) “++ (activity>150% of a CFTR amplifier with compound at concentration shown and Compound A at 3 uM)”; (compound at 10 μM) “++ (activity>150% of a CFTR amplifier with compound at concentration shown and Compound A at 3 uM)”. Regarding `COc1cccc(-c2ccc(=O)n(C(C)c3nc4nc(C(F)(F)F)ccc4[nH]3)n2)c1` (stereo not shown) [Compound 7, 6-(3-Methoxyphenyl)-2-(1-(5-(trifluoromethyl)-1H-imidazo[4,5-b]pyridin-2-yl)ethyl)pyridazin-3(2H)-one], the “Activity (AUC of equivalent chloride current, relative to CFTR amplifier Compound A)” value is “+ (activity<150% of a CFTR amplifier (Compound A) with compound at concentration shown and Compound A at 3 uM)” (compound at 3 μM); “+ (activity<150% of a CFTR amplifier (Compound A) with compound at concentration shown and Compound A at 3 uM)” (compound at 10 μM).

For `COc1cccc(-c2ccc(=O)n(C(C)c3nc4cc(C(F)(F)F)cnc4[nH]3)n2)c1` (stereo not shown) [Compound 8, 6-(3-Methoxyphenyl)-2-(1-(6-(trifluoromethyl)-3H-imidazo[4,5-b]pyridin-2-yl)ethyl)pyridazin-3(2H)-one], the “Activity (AUC of equivalent chloride current, relative to CFTR amplifier Compound A)” value (compound at 3 μM) was “+ (activity<150% of a CFTR amplifier (Compound A) with compound at concentration shown and Compound A at 3 uM)”; the “Activity (AUC of equivalent chloride current, relative to CFTR amplifier Compound A)” value (compound at 10 μM) is “+ (activity<150% of a CFTR amplifier (Compound A) with compound at concentration shown and Compound A at 3 uM)”. On to `COc1cccc(-c2ccc(=O)n(C(C)c3nc4cc(Cl)c(Cl)cc4[nH]3)n2)c1` (stereo not shown) [Compound 9, 2-(1-(5,6-Dichloro-1H-benzo[d]imidazol-2-yl)ethyl)-6-(3-methoxyphenyl)pyridazin-3(2H)-one], for which the “Activity (AUC of equivalent chloride current, relative to CFTR amplifier Compound A)” value (compound at 3 μM) is “++ (activity>150% of a CFTR amplifier with compound at concentration shown and Compound A at 3 uM)”; the “Activity (AUC of equivalent chloride current, relative to CFTR amplifier Compound A)” value (compound at 10 μM) is “++ (activity>150% of a CFTR amplifier with compound at concentration shown and Compound A at 3 uM)”.

For the compound `CC(c1nc2cc(Cl)c(Cl)cc2[nH]1)n1nc(-c2cccc(Cl)c2)ccc1=O` (stereo not shown) [Compound 10, 6-(3-Chlorophenyl)-2-(1-(5,6-dichloro-1H-benzo[d]imidazol-2-yl)ethyl)pyridazin-3(2H)-one], the “Activity (AUC of equivalent chloride current, relative to CFTR amplifier Compound A)” value (compound at 3 μM) was “+ (activity<150% of a CFTR amplifier (Compound A) with compound at concentration shown and Compound A at 3 uM)”; the “Activity (AUC of equivalent chloride current, relative to CFTR amplifier Compound A)” value (compound at 10 μM) is “+ (activity<150% of a CFTR amplifier (Compound A) with compound at concentration shown and Compound A at 3 uM)”. Consider `COc1cccc(-c2ccc(=O)n(C(C)c3nnc(-c4ccccc4)[nH]3)n2)c1` (stereo not shown) [Compound 11, 6-(3-Methoxyphenyl)-2-[1-(5-phenyl-4H-1,2,4-triazol-3-yl)ethyl]-2,3-dihydropyridazin-3-one], for which the “Activity (AUC of equivalent chloride current, relative to CFTR amplifier Compound A)” value (compound at 10 μM) was “+ (activity<150% of a CFTR amplifier (Compound A) with compound at concentration shown and Compound A at 3 uM)”. As for `COc1cccc(-c2ccc(=O)n(C(C)c3nnc(-c4ccc(C(F)(F)F)cc4)[nH]3)n2)c1` (stereo not shown) [Compound 12, 6-(3-Methoxyphenyl)-2-(1-(5-(4-(trifluoromethyl)phenyl)-4H-1,2,4-triazol-3-yl)ethyl)pyridazin-3(2H)-one], the “Activity (AUC of equivalent chloride current, relative to CFTR amplifier Compound A)” value (compound at 10 μM) is “+ (activity<150% of a CFTR amplifier (Compound A) with compound at concentration shown and Compound A at 3 uM)”. As to `COc1cccc(-c2ccc(=O)n(C(C)c3nnc(-c4cccc(C(F)(F)F)c4)[nH]3)n2)c1` (stereo not shown) [Compound 13, 6-(3-Methoxyphenyl)-2-(1-(5-(3-(trifluoromethyl)phenyl)-4H-1,2,4-triazol-3-yl)ethyl)pyridazin-3(2H)-one], the “Activity (AUC of equivalent chloride current, relative to CFTR amplifier Compound A)” value (compound at 10 μM) was “+ (activity<150% of a CFTR amplifier (Compound A) with compound at concentration shown and Compound A at 3 uM)”.
